Assay results published in patent US11578084B2, “Condensed ring compounds having dopamine D3 receptor antagonistic effect” (Shionogi & Co., Ltd., priority 2018, dated 2023).

Assays:
[1] = target: human recombinant dopamine D2 receptor (Homo sapiens (Human), UniProt P14416); assay: Test of binding inhibition for dopamine D2 receptor ([3H]-Methylspiperone SPA); conditions: Jump-In HEK cell membranes, 1.2 nM [3H]-Methylspiperone, 120 min at 25° C.; read-out: hD2_Ki
Method: (§1) (Experimental Conditions)
Cell membranes: Jump-In HEK cell membranes expressing human recombinant dopamine D2 receptor (2 μg/well)
(§2) Non-specific ligand: (final concentration) 10 μM Butaclamol [(+)-Butaclamol Hydrochloride, D033, Sigma]
(§3) SPA beads solution: SPA beads [WGA PVT SPA Scintillation Beads, RPNQ0001 (500 mg), RPNQ0060 (2 g), PerkinElmer] (0.2 mg/well)
(§4) Incubation time and temperature: 120 min at 25° C.
(§5) Butaclamol or the compounds of the present invention were weighed and DMSO was added to make a 10 mM solution. This solution was diluted to each concentration.
(§6) SPA beads were weighed and stirred in water to make a 50 mg/mL solution. Using this solution, a mixture with the cell membranes was prepared.
Jump-In HEK Cell membranes (final reaction amount: 2 μg protein/well), the SPA beads solution (final reaction amount: 0.2 mg/well) and the buffer solution were mixed, and the mixed solution was left still for 1 hour or more at 4° C. Then, 50 μL of the mixture was added to each well of the plate. […] Non-specific binding was calculated based on the radioactivity of [^3H]-Methylspiperone in the presence of 10 μM non-labeled Butaclamol. The total binding was calculated using the radioactivity of [^3H]-Methylspiperone in the absence of the compounds of the present invention (Vehicle). The Ki values were calculated from dose-response curves.
(§7) Binding activities of the compounds of the present invention were calculated from the following Binding Inhibition Rate (%): Inhibition Rate (%)=[1−(c−a)/(b−a)]×100 • a: Average cpm of non-specific binding • b: Average cpm of total binding • c: Cpm in the presence of each test compound

[2] = target: human recombinant dopamine D3 receptor (Homo sapiens (Human), UniProt P35462); assay: Test of binding inhibition for dopamine D3 receptor ([3H]-Methylspiperone SPA); conditions: Jump-In HEK cell membranes, 2 nM [3H]-Methylspiperone, 120 min at 25° C.; read-out: hD3_Ki
Chain of human recombinant dopamine D3 receptor (P35462 whole entry): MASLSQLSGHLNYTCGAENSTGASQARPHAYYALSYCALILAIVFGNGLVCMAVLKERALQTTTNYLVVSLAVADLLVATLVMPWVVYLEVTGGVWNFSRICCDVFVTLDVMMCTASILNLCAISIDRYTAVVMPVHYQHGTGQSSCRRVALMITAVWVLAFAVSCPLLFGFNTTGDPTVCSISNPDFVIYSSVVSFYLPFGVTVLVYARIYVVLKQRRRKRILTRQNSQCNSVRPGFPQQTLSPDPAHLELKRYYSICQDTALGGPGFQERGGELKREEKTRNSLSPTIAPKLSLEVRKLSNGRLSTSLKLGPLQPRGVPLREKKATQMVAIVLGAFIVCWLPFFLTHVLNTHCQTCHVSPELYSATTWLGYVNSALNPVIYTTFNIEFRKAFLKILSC
Method: as §1
Cell membranes: Jump-In HEK cell membranes expressing human recombinant dopamine D3 receptor (4 μg/well)
as §2, §3, §4, §5
[^3H]-Methylspiperone was weighed and the buffer solution was added to make a 6 nM solution.
as §6
Jump-In HEK Cell membranes (final reaction amount: 4 μg protein/well), the SPA beads solution (final reaction amount: 0.2 mg/well) and the buffer solution were mixed and the mixed solution was left still for 1 hour or more at 4° C. Then, 50 μL of the mixture was added to each well of the plate. In addition, 25 μL of 6 nM [^3H]-Methylspiperone (final concentration: 2 nM) was added to each well. […] Non-specific binding was calculated based on the radioactivity of [^3H]-Methylspiperone in the presence of 10 μM non-labeled Butaclamol. The total binding was calculated using the radioactivity of [H]-Methylspiperone in the absence of the compounds of the present invention (vehicle). The Ki values were calculated from dose-response curves.
as §7

Chain of human recombinant dopamine D2 receptor (P14416 whole entry): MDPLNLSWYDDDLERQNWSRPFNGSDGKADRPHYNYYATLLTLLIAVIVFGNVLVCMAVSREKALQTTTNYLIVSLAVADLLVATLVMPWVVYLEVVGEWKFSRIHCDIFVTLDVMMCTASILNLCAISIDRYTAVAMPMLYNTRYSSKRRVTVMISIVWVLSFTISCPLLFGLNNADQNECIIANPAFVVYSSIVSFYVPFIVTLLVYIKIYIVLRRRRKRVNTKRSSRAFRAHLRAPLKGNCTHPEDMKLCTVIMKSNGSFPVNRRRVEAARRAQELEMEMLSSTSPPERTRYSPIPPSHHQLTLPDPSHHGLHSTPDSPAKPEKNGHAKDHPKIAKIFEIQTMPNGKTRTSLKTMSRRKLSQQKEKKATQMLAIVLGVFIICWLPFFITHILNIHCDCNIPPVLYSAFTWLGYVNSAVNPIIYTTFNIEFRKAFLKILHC

| Structure (SMILES) | Ki [1] | Ki [2] |
| --- | --- | --- |
| CC(Oc1ccc2c(n1)CCN(CC[C@H]1CC[C@H](NC(=O)c3cccc4nn(C)cc34)CC1)CC2)C(F)F (single isomer, unassigned) [Example I-123] | 200 nM | 0.034 nM |
| CC(Oc1ccc2c(n1)CCN(CC[C@H]1CC[C@H](NC(=O)c3cccc4nn(C)cc34)CC1)CC2)C(F)F (single isomer, unassigned) [Example I-124] | 180 nM | 0.072 nM |
| Cc1ncc(CC(=O)NC2CC3CCC(C2)N3CCN2CCc3sc(OCC(F)(F)F)nc3C2)s1 (single isomer, unassigned) [Example I-134] | 300 nM | 0.17 nM |
| Cn1cc2ccc(C(=O)N[C@H]3CC[C@H](CCN4CCc5nc(OCC(C)(F)F)sc5CC4)CC3)cc2n1 [Example I-050] | > 1800 nM | 0.16 nM |
| CC(F)(F)COc1nc2c(s1)CCN(CC[C@H]1CC[C@H](NC(=O)c3cnn4ccccc34)CC1)CC2 [Example I-051] | 1100 nM | 0.43 nM |
| Cc1cc(CC(=O)N[C@H]2CC[C@H](CCN3CCc4nc(OCC(C)(F)F)sc4CC3)CC2)on1 [Example I-052] | 1700 nM | 0.083 nM |
| Cc1cc(OCC(=O)N[C@H]2CC[C@H](CCN3CCc4nc(OCC(C)(F)F)sc4CC3)CC2)no1 [Example I-053] | 630 nM | 0.2 nM |
| Cn1nnc2cccc(C(=O)N[C@H]3CC[C@H](CCN4CCc5nc(OCC(C)(F)F)sc5CC4)CC3)c21 [Example I-054] | 270 nM | 0.13 nM |
| Cn1ccc2c(C(=O)N[C@H]3CC[C@H](CCN4CCc5nc(OCC(C)(F)F)sc5CC4)CC3)cccc2c1=O [Example I-055] | > 1800 nM | 0.19 nM |
| Cn1cc2c(C(=O)N[C@H]3CC[C@H](CCN4CCc5ccc(OC6CCC(F)(F)C6)nc5CC4)CC3)cccc2n1 (some centres unmarked) [Example I-057] | 770 nM | 0.18 nM |
| Cc1cc2c(C(=O)N[C@H]3CC[C@](F)(CCN4CCc5nc(OCC(F)F)sc5CC4)CC3)cccn2n1 [Example I-058] | > 1700 nM | 0.47 nM |
| Cc1ncc(/C=C/C(=O)N[C@H]2CC[C@](F)(CCN3CCc4nc(OCC(F)F)sc4CC3)CC2)cn1 [Example I-061] | > 1800 nM | 0.65 nM |
| CC(C)Oc1ccc2c(n1)CCN(CC[C@H]1CC[C@H](NC(=O)c3cnn4ccccc34)CC1)CC2 [Example I-062] | 1100 nM | 1 nM |
| CC(C)Oc1ccc2c(n1)CCN(CC[C@H]1CC[C@H](NC(=O)c3cccc4c(=O)n(C)ccc34)CC1)CC2 [Example I-063] | 1700 nM | 0.62 nM |
| Cc1ncc(CC(=O)N[C@H]2CC[C@H](CCN3CCc4nc(OCC(C)(F)F)sc4CC3)OC2)s1 [Example I-064] | 950 nM | 0.3 nM |
| Cc1c(F)cccc1C(=O)N[C@H]1CC[C@H](CCN2CCc3nc(OCC(C)(F)F)sc3CC2)OC1 [Example I-065] | 340 nM | 0.26 nM |
| Cn1ncc2ccc(C(=O)N[C@H]3CC[C@H](CCN4CCc5nc(OCC(C)(F)F)sc5CC4)OC3)cc21 [Example I-067] | 370 nM | 0.16 nM |
| Cc1ncc(OCC(=O)N[C@H]2CC[C@H](CCN3CCc4nc(OCC(C)(F)F)sc4CC3)OC2)cn1 [Example I-068] | 870 nM | 0.47 nM |
| Cc1nc(CC(=O)N[C@H]2CC[C@H](CCN3CCc4sc(C5CC(F)(F)C5)nc4C3)CC2)no1 [Example I-070] | 780 nM | 0.17 nM |
| CN1Cc2c(C(=O)N[C@H]3CC[C@](F)(CCN4CCc5nc(OCC(F)F)sc5CC4)CC3)cccc2C1=O [Example I-072] | > 1700 nM | 0.13 nM |
| Cc1nc(CC(=O)N[C@H]2CC[C@](F)(CCN3CCc4ccc(OCC(C)(F)F)nc4CC3)CC2)no1 [Example I-078] | > 1800 nM | 0.13 nM |
| Cc1cc(OCC(=O)N[C@H]2CC[C@](F)(CCN3CCc4ccc(OCC(C)(F)F)nc4CC3)CC2)no1 [Example I-079] | > 1800 nM | 0.07 nM |
| Cc1cc(OCC(=O)N[C@H]2CC[C@](F)(CCN3CCc4ccc(OCC(F)F)nc4CC3)CC2)no1 [Example I-084] | > 2200 nM | 0.25 nM |
| COc1cc(CC(=O)N[C@H]2CC[C@](F)(CCN3CCc4ccc(OCC(F)F)nc4CC3)CC2)on1 [Example I-085] | > 2200 nM | 0.044 nM |

| Structure (SMILES) | Ki [1] | Ki [2] |
| --- | --- | --- |
| Cc1cnc(CC(=O)N[C@H]2CC[C@](F)(CCN3CCc4ccc(OCC(F)F)nc4CC3)CC2)o1 [Example I-086] | > 2200 nM | 0.52 nM |
| Cn1cc2c(C(=O)N[C@H]3CC[C@H](CCN4CCc5ccc(OC6CCC6)nc5CC4)CC3)cccc2n1 [Example I-089] | > 2200 nM | 0.22 nM |
| Cc1cnc(CC(=O)N[C@H]2CC[C@H](CCN3CCc4ccc(OC5CCC5)nc4CC3)CC2)o1 [Example I-090] | > 2400 nM | 0.65 nM |
| Cc1ncccc1C(=O)N[C@H]1CC[C@H](CCN2CCc3ccc(OCC(F)F)nc3CC2)CC1 [Example I-091] | 940 nM | 0.28 nM |
| CCn1c(C(=O)N[C@H]2CC[C@H](CCN3CCc4ccc(OCC(F)F)nc4CC3)CC2)cccc1=O [Example I-092] | 310 nM | 0.16 nM |
| Cc1nnc(CC(=O)N[C@H]2CC[C@H](CCN3CCc4ccc(OCC(F)F)nc4CC3)CC2)o1 [Example I-093] | 1200 nM | 0.17 nM |
| Cc1cc(CC(=O)N[C@H]2CC[C@H](CCN3CCc4ccc(OCC(F)F)nc4CC3)CC2)no1 [Example I-094] | 910 nM | 0.3 nM |
| Cn1cc(CC(=O)N[C@H]2CC[C@H](CCN3CCc4ccc(OCC(F)F)nc4CC3)CC2)cn1 [Example I-095] | 1400 nM | 0.18 nM |
| Cn1cc(OCC(=O)N[C@H]2CC[C@H](CCN3CCc4ccc(OCC(F)F)nc4CC3)CC2)cn1 [Example I-096] | 570 nM | 0.18 nM |
| Cc1ncc(OCC(=O)N[C@H]2CC[C@H](CCN3CCc4ccc(OCC(F)F)nc4CC3)CC2)cn1 [Example I-097] | 900 nM | 0.11 nM |
| Cc1ncc(/C=C/C(=O)N[C@H]2CC[C@H](CCN3CCc4ccc(OCC(F)F)nc4CC3)CC2)cn1 [Example I-098] | 350 nM | 0.17 nM |
| Cn1ncc(CC(=O)N[C@H]2CC[C@](F)(CCN3CCc4ccc(OC5CCC5)nc4CC3)CC2)n1 [Example I-106] | > 2300 nM | 0.54 nM |
| Cc1ncc(CC(=O)N[C@H]2CC[C@H](CCN3CCc4nc(OCC(F)(F)F)sc4CC3)CC2)cn1 [Example I-110] | 460 nM | 0.17 nM |
| Cc1nnc(CC(=O)N[C@H]2CC[C@](F)(CCN3CCc4nc(OCCC(F)(F)F)sc4CC3)CC2)s1 [Example I-115] | > 2200 nM | 0.63 nM |
| Cc1ncc(/C=C/C(=O)N[C@H]2CC[C@](F)(CCN3CCc4nc(OCCC(F)(F)F)sc4CC3)CC2)cn1 [Example I-116] | > 2200 nM | 1 nM |
| Cc1cnc(CC(=O)N[C@H]2CC[C@](F)(CCN3CCc4nc(OCCC(F)(F)F)sc4CC3)CC2)o1 [Example I-117] | > 2200 nM | 0.55 nM |
| Cc1cnc(OCC(=O)N[C@H]2CC[C@](F)(CCN3CCc4nc(OCCC(F)(F)F)sc4CC3)CC2)cn1 [Example I-118] | > 2200 nM | 0.74 nM |
| C[C@@H](Oc1nc2c(s1)CCN(CC[C@H]1CC[C@H](NC(=O)COc3cnn(C)c3)CC1)CC2)C(F)(F)F [Example I-120] | 840 nM | 0.84 nM |
| O=C(N[C@H]1CC[C@H](CCN2CCc3ccc(OCC(F)F)nc3CC2)CC1)c1cccnc1C(F)F [Example I-121] | 650 nM | 0.26 nM |
| Cn1c(C(=O)N[C@H]2CC[C@H](CCN3CCc4nc(OCC(F)(F)F)sc4CC3)CC2)ccc(F)c1=O [Example I-122] | 360 nM | 0.24 nM |
| Cc1nnc(CC(=O)N[C@H]2CC[C@H](CCN3CCc4nc(O[C@H](C)C(F)(F)F)sc4CC3)CC2)s1 [Example I-125] | 1100 nM | 0.61 nM |
| Cc1nnc(CC(=O)N[C@H]2CC[C@](F)(CCN3CCc4nc(O[C@H](C)C(F)(F)F)sc4CC3)CC2)s1 [Example I-126] | > 2300 nM | 0.92 nM |
| Cc1ncc(OCC(=O)N[C@H]2CC[C@H](CCN3CCc4ccc(O[C@H](C)C(F)(F)F)nc4CC3)CC2)cn1 [Example I-127] | 410 nM | 0.12 nM |
| Cn1cc(OCC(=O)N[C@H]2CC[C@H](CCN3CCc4ccc(CCC(F)(F)F)nc4CC3)CC2)cn1 [I′-6] | – | 0.33 nM |
